Data published in ChEMBL document CHEMBL4699440, “Comprehensive review on the anti-bacterial activity of 1,2,3-triazole hybrids” (Eur J Med Chem, 2019).
Values after ≈ are worked out from the molar mass of the structure shown.

Each molecule was assayed on Klebsiella pneumoniae (assay: Antibacterial activity against Klebsiella pneumoniae ATCC 27736 by CLSI-based broth dilution method). Settings: not given.
Assay type: functional

| SMILES | MIC [µg/mL] |
| --- | --- |
| COc1ccc(-n2cc(COc3ccc(-c4nc5cc(C(=N)N)ccc5[nH]4)cc3)nn2)cc1 | 16 (≈ 36.4 µM) |
| CC(C)NC(=N)c1ccc2[nH]c(-c3ccc(OCc4cn(-c5ccc(Cl)cc5)nn4)cc3)nc2c1 | 8 (≈ 16.5 µM) |
| COc1ccc(-n2cc(COc3ccc(-c4nc5cc(C(=N)NC(C)C)ccc5[nH]4)cc3)nn2)cc1 | 8 (≈ 16.6 µM) |
| c1ccc(-n2cc(COc3ccc(-c4nc5cc(C6=NCCN6)ccc5[nH]4)cc3)nn2)cc1 | 8 (≈ 18.4 µM) |
| c1ccc(Cn2cc(COc3ccc(-c4nc5cc(C6=NCCN6)ccc5[nH]4)cc3)nn2)cc1 | 8 (≈ 17.8 µM) |
| CC(C)NC(=N)c1ccc2[nH]c(-c3ccc(OCc4cn(-c5ccccc5)nn4)cc3)nc2c1 | 8 (≈ 17.7 µM) |
| N=C(N)c1ccc2[nH]c(-c3ccc(OCc4cn(Cc5ccccc5)nn4)cc3)nc2c1 | 16 (≈ 37.8 µM) |
| N=C(N)c1ccc2[nH]c(-c3ccc(OCc4cn(-c5ccccc5)nn4)cc3)nc2c1 | 16 (≈ 39.1 µM) |
| Clc1ccc(-n2cc(COc3ccc(-c4nc5cc(C6=NCCN6)ccc5[nH]4)cc3)nn2)cc1 | 8 (≈ 17 µM) |
| N=C(N)c1ccc2[nH]c(-c3ccc(OCc4cn(-c5ccc(Cl)cc5)nn4)cc3)nc2c1 | 16 (≈ 36 µM) |
| COc1ccc(-n2cc(COc3ccc(-c4nc5cc(C6=NCCN6)ccc5[nH]4)cc3)nn2)cc1 | 8 (≈ 17.2 µM) |
| CC(C)NC(=N)c1ccc2[nH]c(-c3ccc(OCc4cn(Cc5ccccc5)nn4)cc3)nc2c1 | 8 (≈ 17.2 µM) |

What follows are molecules tested on Staphylococcus aureus (assay: Antibacterial activity against methicillin-resistant Staphylococcus aureus ATCC 25923 by CLSI-based broth dilution method). Settings: not given.
Assay type: functional

| SMILES | MIC [µg/mL] |
| --- | --- |
| COc1ccc(-n2cc(COc3ccc(-c4nc5cc(C(=N)N)ccc5[nH]4)cc3)nn2)cc1 | 16 (≈ 36.4 µM) |
| CC(C)NC(=N)c1ccc2[nH]c(-c3ccc(OCc4cn(-c5ccc(Cl)cc5)nn4)cc3)nc2c1 | 8 (≈ 16.5 µM) |
| COc1ccc(-n2cc(COc3ccc(-c4nc5cc(C(=N)NC(C)C)ccc5[nH]4)cc3)nn2)cc1 | 8 (≈ 16.6 µM) |
| c1ccc(-n2cc(COc3ccc(-c4nc5cc(C6=NCCN6)ccc5[nH]4)cc3)nn2)cc1 | 8 (≈ 18.4 µM) |
| c1ccc(Cn2cc(COc3ccc(-c4nc5cc(C6=NCCN6)ccc5[nH]4)cc3)nn2)cc1 | 8 (≈ 17.8 µM) |
| CC(C)NC(=N)c1ccc2[nH]c(-c3ccc(OCc4cn(-c5ccccc5)nn4)cc3)nc2c1 | 8 (≈ 17.7 µM) |
| N=C(N)c1ccc2[nH]c(-c3ccc(OCc4cn(Cc5ccccc5)nn4)cc3)nc2c1 | 16 (≈ 37.8 µM) |
| N=C(N)c1ccc2[nH]c(-c3ccc(OCc4cn(-c5ccccc5)nn4)cc3)nc2c1 | 16 (≈ 39.1 µM) |
| Clc1ccc(-n2cc(COc3ccc(-c4nc5cc(C6=NCCN6)ccc5[nH]4)cc3)nn2)cc1 | 8 (≈ 17 µM) |
| N=C(N)c1ccc2[nH]c(-c3ccc(OCc4cn(-c5ccc(Cl)cc5)nn4)cc3)nc2c1 | 16 (≈ 36 µM) |
| COc1ccc(-n2cc(COc3ccc(-c4nc5cc(C6=NCCN6)ccc5[nH]4)cc3)nn2)cc1 | 8 (≈ 17.2 µM) |
| CC(C)NC(=N)c1ccc2[nH]c(-c3ccc(OCc4cn(Cc5ccccc5)nn4)cc3)nc2c1 | 8 (≈ 17.2 µM) |

The molecules below were run on Staphylococcus aureus (assay: Antibacterial activity against methicillin-sensitive Staphylococcus aureus by CLSI-based broth dilution method). Settings: not given.
Assay type: functional

| SMILES | MIC [µg/mL] |
| --- | --- |
| COc1ccc(-n2cc(COc3ccc(-c4nc5cc(C(=N)N)ccc5[nH]4)cc3)nn2)cc1 | 16 (≈ 36.4 µM) |
| CC(C)NC(=N)c1ccc2[nH]c(-c3ccc(OCc4cn(-c5ccc(Cl)cc5)nn4)cc3)nc2c1 | 8 (≈ 16.5 µM) |
| COc1ccc(-n2cc(COc3ccc(-c4nc5cc(C(=N)NC(C)C)ccc5[nH]4)cc3)nn2)cc1 | 8 (≈ 16.6 µM) |
| c1ccc(-n2cc(COc3ccc(-c4nc5cc(C6=NCCN6)ccc5[nH]4)cc3)nn2)cc1 | 8 (≈ 18.4 µM) |
| c1ccc(Cn2cc(COc3ccc(-c4nc5cc(C6=NCCN6)ccc5[nH]4)cc3)nn2)cc1 | 8 (≈ 17.8 µM) |
| CC(C)NC(=N)c1ccc2[nH]c(-c3ccc(OCc4cn(-c5ccccc5)nn4)cc3)nc2c1 | 8 (≈ 17.7 µM) |
| N=C(N)c1ccc2[nH]c(-c3ccc(OCc4cn(Cc5ccccc5)nn4)cc3)nc2c1 | 16 (≈ 37.8 µM) |
| N=C(N)c1ccc2[nH]c(-c3ccc(OCc4cn(-c5ccccc5)nn4)cc3)nc2c1 | 16 (≈ 39.1 µM) |
| Clc1ccc(-n2cc(COc3ccc(-c4nc5cc(C6=NCCN6)ccc5[nH]4)cc3)nn2)cc1 | 8 (≈ 17 µM) |
| N=C(N)c1ccc2[nH]c(-c3ccc(OCc4cn(-c5ccc(Cl)cc5)nn4)cc3)nc2c1 | 16 (≈ 36 µM) |
| COc1ccc(-n2cc(COc3ccc(-c4nc5cc(C6=NCCN6)ccc5[nH]4)cc3)nn2)cc1 | 8 (≈ 17.2 µM) |
| CC(C)NC(=N)c1ccc2[nH]c(-c3ccc(OCc4cn(Cc5ccccc5)nn4)cc3)nc2c1 | 8 (≈ 17.2 µM) |

Each molecule was assayed on Enterococcus faecium (assay: Antibacterial activity against vancomycin-resistant Enterococcus faecium by CLSI-based broth dilution method). Settings: time 24 hrs.
Assay type: functional

| SMILES | MIC [µg/mL] |
| --- | --- |
| COc1ccc(-n2cc(COc3ccc(-c4nc5cc(C(=N)N)ccc5[nH]4)cc3)nn2)cc1 | 16 (≈ 36.4 µM) |
| CC(C)NC(=N)c1ccc2[nH]c(-c3ccc(OCc4cn(-c5ccc(Cl)cc5)nn4)cc3)nc2c1 | 8 (≈ 16.5 µM) |
| COc1ccc(-n2cc(COc3ccc(-c4nc5cc(C(=N)NC(C)C)ccc5[nH]4)cc3)nn2)cc1 | 8 (≈ 16.6 µM) |
| c1ccc(-n2cc(COc3ccc(-c4nc5cc(C6=NCCN6)ccc5[nH]4)cc3)nn2)cc1 | 8 (≈ 18.4 µM) |
| c1ccc(Cn2cc(COc3ccc(-c4nc5cc(C6=NCCN6)ccc5[nH]4)cc3)nn2)cc1 | 8 (≈ 17.8 µM) |
| CC(C)NC(=N)c1ccc2[nH]c(-c3ccc(OCc4cn(-c5ccccc5)nn4)cc3)nc2c1 | 8 (≈ 17.7 µM) |
| N=C(N)c1ccc2[nH]c(-c3ccc(OCc4cn(Cc5ccccc5)nn4)cc3)nc2c1 | 16 (≈ 37.8 µM) |
| N=C(N)c1ccc2[nH]c(-c3ccc(OCc4cn(-c5ccccc5)nn4)cc3)nc2c1 | 16 (≈ 39.1 µM) |
| Clc1ccc(-n2cc(COc3ccc(-c4nc5cc(C6=NCCN6)ccc5[nH]4)cc3)nn2)cc1 | 8 (≈ 17 µM) |
| N=C(N)c1ccc2[nH]c(-c3ccc(OCc4cn(-c5ccc(Cl)cc5)nn4)cc3)nc2c1 | 16 (≈ 36 µM) |
| COc1ccc(-n2cc(COc3ccc(-c4nc5cc(C6=NCCN6)ccc5[nH]4)cc3)nn2)cc1 | 8 (≈ 17.2 µM) |
| CC(C)NC(=N)c1ccc2[nH]c(-c3ccc(OCc4cn(Cc5ccccc5)nn4)cc3)nc2c1 | 8 (≈ 17.2 µM) |

Each molecule was assayed on Escherichia coli (assay: Antibacterial activity against ESBL-producing Escherichia coli ATCC 25925 by CLSI-based broth dilution method). Settings: not given.
Assay type: functional

| SMILES | MIC [µg/mL] |
| --- | --- |
| COc1ccc(-n2cc(COc3ccc(-c4nc5cc(C(=N)N)ccc5[nH]4)cc3)nn2)cc1 | 16 (≈ 36.4 µM) |
| CC(C)NC(=N)c1ccc2[nH]c(-c3ccc(OCc4cn(-c5ccc(Cl)cc5)nn4)cc3)nc2c1 | 8 (≈ 16.5 µM) |
| COc1ccc(-n2cc(COc3ccc(-c4nc5cc(C(=N)NC(C)C)ccc5[nH]4)cc3)nn2)cc1 | 8 (≈ 16.6 µM) |
| c1ccc(-n2cc(COc3ccc(-c4nc5cc(C6=NCCN6)ccc5[nH]4)cc3)nn2)cc1 | 8 (≈ 18.4 µM) |
| c1ccc(Cn2cc(COc3ccc(-c4nc5cc(C6=NCCN6)ccc5[nH]4)cc3)nn2)cc1 | 8 (≈ 17.8 µM) |
| CC(C)NC(=N)c1ccc2[nH]c(-c3ccc(OCc4cn(-c5ccccc5)nn4)cc3)nc2c1 | 8 (≈ 17.7 µM) |
| N=C(N)c1ccc2[nH]c(-c3ccc(OCc4cn(Cc5ccccc5)nn4)cc3)nc2c1 | 16 (≈ 37.8 µM) |
| N=C(N)c1ccc2[nH]c(-c3ccc(OCc4cn(-c5ccccc5)nn4)cc3)nc2c1 | 16 (≈ 39.1 µM) |
| Clc1ccc(-n2cc(COc3ccc(-c4nc5cc(C6=NCCN6)ccc5[nH]4)cc3)nn2)cc1 | 8 (≈ 17 µM) |
| N=C(N)c1ccc2[nH]c(-c3ccc(OCc4cn(-c5ccc(Cl)cc5)nn4)cc3)nc2c1 | 16 (≈ 36 µM) |
| COc1ccc(-n2cc(COc3ccc(-c4nc5cc(C6=NCCN6)ccc5[nH]4)cc3)nn2)cc1 | 8 (≈ 17.2 µM) |
| CC(C)NC(=N)c1ccc2[nH]c(-c3ccc(OCc4cn(Cc5ccccc5)nn4)cc3)nc2c1 | 8 (≈ 17.2 µM) |

Each molecule was assayed on Pseudomonas aeruginosa (assay: Antibacterial activity against Pseudomonas aeruginosa ATCC 27853 by CLSI-based broth dilution method). Settings: not given.
Assay type: functional

| SMILES | MIC [µg/mL] |
| --- | --- |
| COc1ccc(-n2cc(COc3ccc(-c4nc5cc(C(=N)N)ccc5[nH]4)cc3)nn2)cc1 | 16 (≈ 36.4 µM) |
| CC(C)NC(=N)c1ccc2[nH]c(-c3ccc(OCc4cn(-c5ccc(Cl)cc5)nn4)cc3)nc2c1 | 8 (≈ 16.5 µM) |
| COc1ccc(-n2cc(COc3ccc(-c4nc5cc(C(=N)NC(C)C)ccc5[nH]4)cc3)nn2)cc1 | 8 (≈ 16.6 µM) |
| c1ccc(-n2cc(COc3ccc(-c4nc5cc(C6=NCCN6)ccc5[nH]4)cc3)nn2)cc1 | 8 (≈ 18.4 µM) |
| c1ccc(Cn2cc(COc3ccc(-c4nc5cc(C6=NCCN6)ccc5[nH]4)cc3)nn2)cc1 | 8 (≈ 17.8 µM) |
| CC(C)NC(=N)c1ccc2[nH]c(-c3ccc(OCc4cn(-c5ccccc5)nn4)cc3)nc2c1 | 8 (≈ 17.7 µM) |
| N=C(N)c1ccc2[nH]c(-c3ccc(OCc4cn(Cc5ccccc5)nn4)cc3)nc2c1 | 16 (≈ 37.8 µM) |
| N=C(N)c1ccc2[nH]c(-c3ccc(OCc4cn(-c5ccccc5)nn4)cc3)nc2c1 | 16 (≈ 39.1 µM) |
| Clc1ccc(-n2cc(COc3ccc(-c4nc5cc(C6=NCCN6)ccc5[nH]4)cc3)nn2)cc1 | 8 (≈ 17 µM) |
| N=C(N)c1ccc2[nH]c(-c3ccc(OCc4cn(-c5ccc(Cl)cc5)nn4)cc3)nc2c1 | 16 (≈ 36 µM) |
| COc1ccc(-n2cc(COc3ccc(-c4nc5cc(C6=NCCN6)ccc5[nH]4)cc3)nn2)cc1 | 8 (≈ 17.2 µM) |
| CC(C)NC(=N)c1ccc2[nH]c(-c3ccc(OCc4cn(Cc5ccccc5)nn4)cc3)nc2c1 | 8 (≈ 17.2 µM) |

What follows are molecules tested on Staphylococcus aureus (assay: Antibacterial activity against Staphylococcus aureus by agar dilution method). Settings: not given.
Assay type: functional

| SMILES | MIC [µg/mL] |
| --- | --- |
| O=C(N/N=C/c1cn(-c2ccccc2)nc1-c1cccs1)c1cccc(-n2cc(-c3ccccc3)nn2)c1 | 2 (≈ 3.88 µM) |
| O=C(N/N=C/c1cn(-c2ccccc2)nc1-c1ccc(F)cc1)c1cccc(-n2cc(-c3ccccc3)nn2)c1 | 2 (≈ 3.79 µM) |
| O=C(N/N=C/c1cn(-c2ccccc2)nc1-c1ccc([N+](=O)[O-])cc1)c1cccc(-n2cc(-c3ccccc3)nn2)c1 | 2 (≈ 3.61 µM) |

The molecules below were run on Bacillus cereus (assay: Antibacterial activity against Bacillus cereus by agar dilution method). Settings: not given.
Assay type: functional

| SMILES | MIC [µg/mL] |
| --- | --- |
| O=C(N/N=C/c1cn(-c2ccccc2)nc1-c1cccs1)c1cccc(-n2cc(-c3ccccc3)nn2)c1 | 2 (≈ 3.88 µM) |
| O=C(N/N=C/c1cn(-c2ccccc2)nc1-c1ccc(F)cc1)c1cccc(-n2cc(-c3ccccc3)nn2)c1 | 2 (≈ 3.79 µM) |
| O=C(N/N=C/c1cn(-c2ccccc2)nc1-c1ccc([N+](=O)[O-])cc1)c1cccc(-n2cc(-c3ccccc3)nn2)c1 | 2 (≈ 3.61 µM) |

Each molecule was assayed on Escherichia coli (assay: Antibacterial activity against Escherichia coli by agar dilution method). Settings: not given.
Assay type: functional

| SMILES | MIC [µg/mL] |
| --- | --- |
| O=C(N/N=C/c1cn(-c2ccccc2)nc1-c1cccs1)c1cccc(-n2cc(-c3ccccc3)nn2)c1 | 2 (≈ 3.88 µM) |
| O=C(N/N=C/c1cn(-c2ccccc2)nc1-c1ccc(F)cc1)c1cccc(-n2cc(-c3ccccc3)nn2)c1 | 2 (≈ 3.79 µM) |
| O=C(N/N=C/c1cn(-c2ccccc2)nc1-c1ccc([N+](=O)[O-])cc1)c1cccc(-n2cc(-c3ccccc3)nn2)c1 | 2 (≈ 3.61 µM) |

These molecules were tested on Pseudomonas aeruginosa (assay: Antibacterial activity against Pseudomonas aeruginosa by agar dilution method). Settings: not given.
Assay type: functional

| SMILES | MIC [µg/mL] |
| --- | --- |
| O=C(N/N=C/c1cn(-c2ccccc2)nc1-c1cccs1)c1cccc(-n2cc(-c3ccccc3)nn2)c1 | 2 (≈ 3.88 µM) |
| O=C(N/N=C/c1cn(-c2ccccc2)nc1-c1ccc(F)cc1)c1cccc(-n2cc(-c3ccccc3)nn2)c1 | 2 (≈ 3.79 µM) |
| O=C(N/N=C/c1cn(-c2ccccc2)nc1-c1ccc([N+](=O)[O-])cc1)c1cccc(-n2cc(-c3ccccc3)nn2)c1 | 2 (≈ 3.61 µM) |
